From US20060205671A1 (priority 2003, published 2006)
Like-named read-outs stand apart in the source and are kept apart here.

Assays:
[1] = test system: isolated canine hearts; settings: cardioplegia containing 150 KIU aprotinin, cited from earlier work
[2] = test system: rat model of coronary artery occlusion and 24 hours of reperfusion; settings: cited from earlier work
[3] = test system: permanent (24 hours) coronary artery occlusion; settings: 100,000 KIU i.v. 30 minutes after occlusion; cited from earlier work
[4] = test system: rat myocardium slices; settings: 200 KIU aprotinin, cited from earlier work
[5] = test system: canine model of 15 minutes coronary artery occlusion; settings: 30,000 KIU/kg bolus plus 7,000 KIU/kg/hr i.v. prior to occlusion; vs saline control; cited from earlier work
[6] = test system: isolated rat hearts; settings: 105 KIU/L aprotinin, pretreatment and adjunct to crystalloid cardioplegia; cited from earlier work
[7] = test system: canine model of LAD occlusion with reperfusion; settings: cited from earlier work
[8] = test system: neutrophils; settings: cited from earlier work; for Superoxide generation by neutrophils: neutrophils activated by fMLP, A23187, concanavalin A (adenosine)
[9] = test system: rabbit model of coronary occlusion-reperfusion; settings: cited from earlier work; for Effect of antagonist on the effects of PolyA (infarct size): given with PolyA, KW-3902 1 mg/kg i.v.
[10] = test system: models of LAD occlusion followed by reperfusion; settings: at onset of reperfusion, continued 2 hours post-reperfusion; cited from earlier work
[11] = test system: platelets; settings: exogenous adenosine; cited from earlier work
[12] = test system: closed-chest porcine model of regional ischemia and reperfusion; experiment: Non-surgical ischemia-reperfusion injury in a closed-chest porcine model (75 min LAD occlusion, reperfusion); format: in vivo
Procedure: The use of combined adenosine and aprotinin treatment in the cath-lab setting was performed in a closed-chest porcine model of regional ischemia and reperfusion. Farm-bred pigs were initially anesthetized with ketamine, xylazine, acepromazine, diazepam and atropine, followed by maintenance anesthesia with inhaled isoflurane. Through a small femoral artery cut-down, a pigtail catheter was fluoroscopically guided into the left ventricle for injection of non-radioactive microspheres to measure regional myocardial blood flow. A similar cut-down was performed on the contralateral femoral artery, through which was placed a sheath to introduce a 7-Fr guide catheter and angioplasty-type balloon catheters. The 7-Fr guide catheter was inserted into this sheath and fluoroscopically guided to the left main coronary artery. The left main coronary ostium was engaged by the catheter and a guide wire. An angioplasty-type balloon catheter was guided into the LAD just distal to the first diagonal branch. […]
After all instrumentation was complete, the animal was allowed to stabilize for 10 minutes. Baseline hemodynamics (arterial pressure, heart rate) and myocardial blood flow (microspheres) were measured. The microspheres were injected via the pigtail catheter to quantify myocardial blood flow during steady state. […]

[13] = test system: canine model of severe coronary occlusion; settings: 10 μM in blood perfusate, first 30 min of reperfusion; after two hours of reperfusion; vs vehicle; cited from earlier work
[14] = test system: ischemically injured hearts (30 minutes of normothermic global ischemia); settings: blood cardioplegia supplemented with 400 μM adenosine vs unsupplemented; cited from earlier work
[15] = test system: reperfusion injury in the canine preparation; settings: 24 hours after start of reflow, cited from earlier work
[16] = 5,000 KIU/kg before onset of reperfusion, vs vehicle
[17] = 20,000 KIU/kg before onset of reperfusion
[18] = infusion for first hour of reperfusion

Compound: aprotinin
- Lysosomal enzyme N-acetyl-β-D-glucosaminidase in coronary sinus blood during reperfusion [1]: significantly lower
- Recovery of systolic function (end-systolic pressure-volume relationship) [1]: significantly less recovery
- Post-ischemic non-specific creatine kinase (CK) activity or CK-MB isoenzyme activity ([1]; vs control group): no difference
- Recovery of post-ischemic ATP after reperfusion ([1]; vs control group): significantly greater
- Infarct size estimated from myocardial creatine kinase loss [2, 16]: significantly reduced
- Neutrophil accumulation (myocardial myeloperoxidase) [2, 16]: significantly reduced
- Appearance of apoptosis in the area at risk myocardium ([2]; 5,000 or 20,000 KIU/kg before onset of reperfusion): attenuated
- Infarct size estimated from myocardial creatine kinase loss [2, 17]: further significantly reduced
- Neutrophil accumulation (myocardial myeloperoxidase) [2, 17]: significantly reduced
- Histologically apparent infarct size [3]: decreased
- ATP content and protein synthesis of myocardium slices ([4]; 4° C., up to 6 hours of storage): attenuated the decline
- TNFα generation and uptake by myocardial tissue slices [4]: suppressed
- Recovery of systolic function in the area at risk (systolic shortening) [5]: significantly greater recovery
- Myocardial protection [6]: significant protection

Compound: CCNC(=O)[C@H]1O[C@@H](n2cnc3c(N)nc(NCCc4ccc(CCC(=O)O)cc4)nc32)[C@H](O)[C@@H]1O [CGS-21680, 2-[p-(2-carbonyl-ethyl)-phenylethylamino]-5′-N-ethylcarboxamidoadenosine]
- Infarct size ([7]; 60 min occlusion, intracoronary infusion for first hour of reperfusion, saline vehicle 29.8±2.3%): 15.4±2.9 % of the area at risk
- Neutrophil accumulation in the area at risk [7, 18]: significantly reduced
- Wall motion [7, 18]: no improvement
- Superoxide generation by neutrophils [8]: attenuated

Compound: Cn1c(=O)c2[nH]c(-c3ccc(S(=O)(=O)O)cc3)nc2n(C)c1=O [8-SPT, 8-p-sulfophenyl theophylline]
- Effect of antagonist on the effects of PolyA (infarct size) [9]: reversed

Compound: polyadenylic acid
- PMNs superoxide generation and adherence to coronary endothelium [8]: significantly inhibited
- Reduction of infarct size ([9]; nearly sub-vasodilator dose at reperfusion): 50%

Compound: CCCn1c(=O)c2[nH]c(C34CC5CC(CC3C5)C4)nc2n(CCC)c1=O [KW-3902, 8-(3-noradamantyl)-1,3-dipropylxanthine]
- Effect of antagonist on the effects of PolyA (infarct size) [9]: not altered

Compound: 1S-[1a,2b,3b,4a(S*)]]-4-[7-[[2-(3-chloro-2-thienyl)-1-methylpropyl]amino]-3H-imidazo[4,5-b]pyridyl-3-yl]cyclopentane carboxamide [AMP-579]
- Infarct size [10]: reduced

Compound: Nc1ncnc2c1ncn2[C@@H]1O[C@H](CO)[C@@H](O)[C@H]1O [adenosine]
- Concentrations inhibiting platelet aggregation [11]: 2 to 40 µM
- Infarct size ([12]; intracoronary adenosine approx 10-20 μM LAD blood concentration for about 30 min at reperfusion, group of three animals, delivery questionable (no vasodilatory effect at 15 min)): 40.4±3.6%
- Infarct size ([12]; intracoronary adenosine approx 10-20 μM for about 30 min at reperfusion, the one experiment with delivery confirmed by vasodilation at 15 min reperfusion): 10%
- Infarct size as percent of AAR (An/ARR) [13]: significantly lower
- Infarct size as percent of LV (An/LV) [13]: significantly lower
- Superoxide generation by neutrophils [8]: inhibited
- Post-ischemic systolic dysfunction [14]: reversed
- Regional contractile function ([15]; intracoronary 3.75 mg/min at onset of reperfusion): improved
- Reduction of infarct size ([15]; intracoronary into LAD 3.75 mg/min at onset of reperfusion): 75%
